According to ChEMBL document CHEMBL3627715, “Caffeoyl glucosides from Nandina domestica inhibit LPS-induced endothelial inflammatory responses” (Bioorg Med Chem Lett, 2015):

Experiments:
[1] = tested on: HUVEC; test: Inhibition of LPS-induced hyperpermeability in HUVEC cells assessed as permeability at 20 uM for 6 hrs pretreated with LPS for 4 hrs by evans blue dye flux based immunofluorescence analysis (reference value: 100%); assay type: functional, Homo sapiens; parameters: scale not given: the % may be the effect or the level left
[2] = tested on: HUVEC; test: Inhibition of LPS-induced neutrophil adhesion in HUVEC cells for 6 hrs pretreated with LPS for 4 hrs by fluorescence microplate reader assay; assay type: functional, cell-based; details: Homo sapiens
[3] = Acid hydrolysis of compound assessed as retention time at 2 mg after 6 hrs by RP-HPLC method; assay type: physicochemical
[4] = tested on: HUVEC; test: Cytotoxicity against HUVEC cells assessed as neutrophil adhesion at 2.5 to 20 uM after 6 hrs by fluorescence microplate reader assay; assay type: cell-based; details: human
[5] = tested on: HUVEC; test: Inhibition of LPS-induced neutrophil migration in HUVEC cells assessed as migration index at 20 uM for 6 hrs pretreated with LPS for 4 hrs (reference value: 155); assay type: functional, Homo sapiens
[6] = tested on: HUVEC; test: Inhibition of LPS-induced neutrophil migration in HUVEC cells for 6 hrs pretreated with LPS for 4 hrs; assay type: functional, cell-based; details: Homo sapiens
[7] = tested on: HUVEC; test: Cytotoxicity against HUVEC cells assessed as permeability at 2.5 to 20 uM after 6 hrs by evans blue dye flux based immunofluorescence analysis; assay type: cell-based; details: human
[8] = tested on: HUVEC; test: Inhibition of LPS-induced neutrophil adhesion in HUVEC cells assessed as neutrophil adhesion to cell monolayer at 20 uM for 6 hrs pretreated with LPS for 4 hrs by fluorescence microplate reader assay (reference value: 86%); assay type: functional, Homo sapiens; parameters: scale not given: the % may be the effect or the level left
[9] = tested on: HUVEC; test: Inhibition of LPS-induced hyperpermeability in HUVEC cells for 6 hrs pretreated with LPS for 4 hrs by evans blue dye flux based immunofluorescence analysis; assay type: functional, cell-based; details: Homo sapiens
[10] = tested on: HUVEC; test: Cytotoxicity against HUVEC cells assessed as neutrophil migration at 2.5 to 20 uM after 6 hrs; assay type: cell-based; details: human

SMILES	Activity [1] [%]	inhibition [2]	Retention_time [3] [min]	Activity [4]	Activity_index [5]	inhibition [6]	Activity [7]	Activity [8] [%]	inhibition [9]	Activity [10]
O=Cc1ccc(O[C@@H]2O[C@H](COC(=O)/C=C/c3ccc(O)c(O)c3)[C@@H](O)[C@H](O)[C@H]2O)cc1	73	Dose-dependent effect	28.1	Non-toxic	75	Dose-dependent effect	Non-toxic	30	Dose-dependent effect	Non-toxic
O=Cc1ccc(O[C@@H]2O[C@H](CO)[C@@H](OC(=O)/C=C/c3ccc(O)c(O)c3)[C@H](O)[C@H]2O)cc1	58	Dose-dependent effect	–	Non-toxic	74	Dose-dependent effect	Non-toxic	33	Dose-dependent effect	Non-toxic
O=c1cc(-c2ccc(O)c(O)c2)oc2c([C@@H]3O[C@H](CO)[C@@H](O)[C@H](O)[C@H]3O)c(O)cc(O)c12 [ORIENTIN]	71	–	–	–	73	Dose-dependent effect	–	41	–	–
O=C(/C=C/c1ccc(O)c(O)c1)OCc1ccc(O[C@@H]2O[C@H](CO)[C@@H](O)[C@H](O)[C@H]2O)cc1	–	–	–	–	142	–	–	73	–	–
